SMILES strings stand for the structures. Where only a bound is given, the exact number is not on record here.

In the assay the target is recombinant human HDACs (Homo sapiens). In words: HDAC enzymatic assay. Format: biochemical. To be noted: 5 nM HDAC enzyme, 5 h pre-incubation, 17 h reaction at 25° C.; isoform not given; read-out: IC50. Here is the method: All recombinant human HDACs were purchased from BPS Bioscience. The substrate, FAM-TSRHK(AC)KL-CONH, was synthesized at NanoSyn. Final assay reactions contained 100 mM HEPES (pH 7.5), 50 mM KCl, 0.1% BSA, 0.01% Triton X-100, 1% DMSO, 1 uM substrate and 5 nM HDAC enzyme. Enzyme and compounds were pre-incubated at 25° C. for 5 hours and reactions were initiated by addition of substrate. 10 uL reactions were incubated for 17 hours at 25° C. and terminated by the addition of 40 uL of buffer containing 100 mM HEPES (pH 7.5), 0.1% BSA, 0.01% Triton X-100 and 0.05% SDS. Substrate and product peptides present in each sample were separated electrophoretically using the LabChip 3000 capillary electrophoresis instrument. Change in the relative fluorescence intensity of the substrate and product peaks reflects enzyme activity. Reaction progress was determined as the product to sum ratio (PSR):P/(S+P), where P is the peak height of the product peptide and S is the peak height of the substrate peptide. Reactions were performed in duplicate at 12 concentrations, (3× serial dilutions starting at 30 uM). IC50 values were calculated using a 4 Parameter Logistic Model.
What is called IC50 is the concentration at which inhibition is half-maximal. On to `Nc1ccc(-c2ccc(F)cc2)nc1NC(=O)N1CC2CCCC2C1` (stereo not shown) [Compound 385], for which the IC50 is 500 to 5000 nM.
In the case of `Nc1ccc(-c2cccs2)nc1NC(=O)N1Cc2cc(CN3CCCC3)cnc2C1` [Compound 144], the concentration for half-maximal inhibition (IC50) fell in the range of 100 to 500 nM.
Consider `Nc1ccc(-c2ccc(F)cc2)nc1NC(=O)N1Cc2cc(CN3CC(F)C3)cnc2C1` [Compound 275], for which the IC50 lay within 100 to 500 nM.
Take `CN1CCC(c2cnc3c(c2)CN(C(=O)Nc2nc(-c4ccc(F)cc4)ccc2N)C3)CC1` [Compound 252]: the IC50 lay within 100 to 500 nM.
`CN(C1COC1)C1CC2CN(C(=O)Nc3nc(-c4ccc(F)cc4)ccc3N)CC2C1` (stereo not shown) [Compound 248]: the IC50 is 500 to 5000 nM.
`CN1CC(CC(=O)Nc2nc(-c3ccc(F)cc3)ccc2N)C1` [Compound 376]: the half-maximal inhibitory concentration (IC50) is greater than 5000 nM.
The value for `CN1CCN(C(=O)Nc2nn(-c3ccccc3)cc2N)CC1` [Compound 361] was greater than 5000 nM; that for `CN1CC(n2cc3c(n2)CN(C(=O)Nc2nc(-c4ccc(F)cc4)ccc2N)C3)C1` [Compound 247] was 100 to 500 nM.
With `CC(C)Cc1cnc2c(c1)CN(C(=O)Nc1nc(-c3ccc(F)cc3)ccc1N)C2` [Compound 274] the figure was 100 to 500 nM.
The value for `CN1CCCC2(CCN(C(=O)Nc3nc(-c4cccnc4)ccc3N)C2)C1` (stereo not shown) [Compound 211] was greater than 5000 nM.
Regarding `CN1CCC(c2cnc3c(c2)CN(C(=O)Nc2nc(-c4cccnc4)ccc2N)C3)CC1` [Compound 265], the IC50 lay within 500 to 5000 nM.
With `Nc1ccc(-c2ccco2)nc1NC(=O)N1CC2CN(Cc3ccccc3F)CC2C1` (stereo not shown) [Compound 175], the IC50 is greater than 5000 nM.
With `Nc1ccc(-c2ccco2)nc1NC(=O)C1CN(Cc2ccccc2)C1` [Compound 198], the IC50 is greater than 5000 nM.
With `Nc1ccc(-n2cccn2)nc1NC(=O)C1CCN(Cc2ccccc2F)CC1` [Compound 370] the figure was greater than 5000 nM; with `Nc1ccc(-c2ccc(F)cc2)nc1NC(=O)N1Cc2cccc(F)c2C1` [Compound 259], 100 to 500 nM.
Take `Nc1ccc(-c2ccc(F)cc2)nc1NC(=O)N1C[C@@H]2[C@@H](CO)[C@@H]2C1` [Compound 238]: the IC50 lay in the range of 500 to 5000 nM.
The value for `Nc1ccc(-c2ccc(F)cc2)nc1NC(=O)N1CC2CN(Cc3ccccc3F)CC2C1` (stereo not shown) [Compound 176] was 500 to 5000 nM; that for `Nc1ccc(-c2cccnc2)nc1NC(=O)N1Cc2ccc(CO)cc2C1` [Compound 395] was greater than 5000 nM.
With `Nc1ccc(-c2cccs2)nc1NC(=O)N1Cc2ccc(CN3CCCC3)cc2C1` [Compound 410] the figure was 100 to 500 nM; with `Cc1cc2c(cn1)CN(C(=O)Nc1nc(-c3ccc(F)cc3)ccc1N)C2` [Compound 151], 100 to 500 nM.
As to `Nc1cn(-c2ccccc2)nc1NC(=O)N1Cc2ccc(CO)cc2C1` [Compound 350], the IC50 fell in the range of 500 to 5000 nM.
The value for `Nc1ccc(-c2ccc(F)cc2)nc1NC(=O)N1CC2CC(N3CCOCC3)CC2C1` (stereo not shown) [Compound 181] was greater than 5000 nM; that for `Nc1ccc(-c2ccc(F)cc2)nc1NC(=O)N1CCN2CCCC2C1` (stereo not shown) [Compound 224] was greater than 5000 nM; that for `COc1cccc(CN2CCCC3(CCN(C(=O)Nc4nn(-c5ccc(F)cc5)cc4N)C3)C2)c1` (stereo not shown) [Compound 124] was greater than 5000 nM.
For `Nc1ccc(-c2ccccc2)nc1NC(=O)C1CCN(C2COC2)CC1` [Compound 381], the IC50 is greater than 5000 nM.
As for `Nc1ccc(-c2ccccc2)nc1NC(=O)N1CC2CN(C3COC3)CC2C1` (stereo not shown) [Compound 199], the half-inhibitory concentration (IC50) was greater than 5000 nM.
Regarding `Nc1ccc(-c2ccc(F)cc2)nc1NC(=O)N1Cc2ccncc2C1` [Compound 373], the IC50 is 100 to 500 nM.
As to `Nc1ccc(-c2cccnc2)nc1NC(=O)C1CCN(Cc2ccccc2F)CC1` [Compound 378], the concentration for half-maximal inhibition (IC50) is greater than 5000 nM.
The value for `CN1CCN(C[C@@H]2[C@H]3CN(C(=O)Nc4nc(-c5ccc(F)cc5)ccc4N)C[C@@H]23)CC1` [Compound 269] was greater than 5000 nM; that for `COC1CCN(Cc2ccc3c(c2)CN(C(=O)Nc2nc(-c4ccc(F)cc4)ccc2N)C3)C1` (stereo not shown) [Compound 363] was 100 to 500 nM; that for `COCC1CCN(C(=O)Nc2nc(-c3ccc(F)cc3)ccc2N)C1` (stereo not shown) [Compound 389] was greater than 5000 nM.
The value for `Cc1ccc(C2CN(C(=O)Nc3nc(-c4ccc(F)cc4)ccc3N)C2)cc1` [Compound 170] was 500 to 5000 nM.
As to `Nc1ccc(-c2ccc(F)cc2)nc1NC(=O)C1[C@H]2CN(C3CCOCC3)C[C@@H]12` (stereo partly shown) [Compound 264], the IC50 is greater than 5000 nM.
The value for `Cn1cc(CN2CCCC3(CCC(C(=O)Nc4nc(-c5ccc(F)cc5)ccc4N)C3)C2)cn1` (stereo not shown) [Compound 223] was greater than 5000 nM; that for `Nc1ccc(-c2ccc(F)cc2)nc1NC(=O)N1Cc2cnc(C3CCOCC3)cc2C1` [Compound 240] was 100 to 500 nM.
The value for `CN1CC(CN2C[C@@H]3[C@H](C2)[C@H]3C(=O)Nc2nc(-c3ccc(F)cc3)ccc2N)C1` [Compound 268] was greater than 5000 nM; that for `Nc1ccc(-c2cccs2)nc1NC(=O)N1Cc2nccnc2C1` [Compound 156] was 100 to 500 nM; that for `Nc1ccc(-c2ccc(F)cc2)nc1NC(=O)N1C[C@@H]2[C@@H](CN3CCC3)[C@@H]2C1` [Compound 270] was greater than 5000 nM.
`CN(C)Cc1ccc2c(c1)CN(C(=O)Nc1nc(-c3cccs3)ccc1N)C2` [Compound 409]: the 50% inhibitory concentration (IC50) was 100 to 500 nM.
In the case of `Nc1ccc(-c2ccc(F)cc2)nc1NC(=O)N1CC2COCC2C1` (stereo not shown) [Compound 392], the IC50 fell in the range of 500 to 5000 nM.
On to `Nc1ccc(-c2ccc(F)cc2)nc1NC(=O)N1Cc2cc(C3CC3)cnc2C1` [Compound 255], for which the IC50 lay within 100 to 500 nM.
The value for `Nc1ccc(-c2ccc(F)cc2)nc1NC(=O)N1CCC(F)(F)C1` [Compound 364] was 500 to 5000 nM.
With `Nc1ccc(-c2ccco2)nc1NC(=O)N1CC2CN(C3COC3)CC2C1` (stereo not shown) [Compound 182] the figure was greater than 5000 nM; with `Nc1ccc(-c2ccc(F)cc2)nc1NC(=O)N1Cc2cc(CN3CCCC3)cnc2C1` [Compound 155], 100 to 500 nM.
The value for `COc1ccc(-c2ccc(N)c(NC(=O)N3Cc4ccncc4C3)n2)cc1` [Compound 173] was 500 to 5000 nM.
As to `Nc1ccc(-c2ccc(F)cc2)nc1NC(=O)C1CN(c2ccccn2)C1` [Compound 192], the IC50 was greater than 5000 nM.
With `CN1CCC(c2cnc3c(c2)CN(C(=O)Nc2nc(-c4cccs4)ccc2N)C3)CC1` [Compound 250] the figure was 100 to 500 nM.
On to `CC(=O)N1CCN(CC(=O)Nc2nc(-c3ccccc3)ccc2N)CC1` [Compound 196], for which the IC50 was greater than 5000 nM.
With `Cn1cc(CN2CCCC3(CCN(C(=O)Nc4nn(-c5ccc(F)cc5)cc4N)C3)C2)cn1` (stereo not shown) [Compound 123] the figure was greater than 5000 nM; with `CC(=O)N1CCN(C(=O)Nc2nn(-c3ccccc3)cc2N)CC1` [Compound 360], greater than 5000 nM; with `COC1CCN(C(=O)Nc2nc(-c3ccc(F)cc3)ccc2N)C1` (stereo not shown) [Compound 388], 500 to 5000 nM.
For the compound `Cc1cc(F)ccc1-c1ccc(N)c(NC(=O)N2Cc3cnc(CN(C)C)cc3C2)n1` [Compound 261], the IC50 is greater than 5000 nM.
`CN1CCc2sc(C(=O)Nc3nc(-c4ccco4)ccc3N)nc2C1` [Compound 163]: the IC50 is 100 to 500 nM.
The value for `Cc1cnc(C(=O)Nc2nn(-c3ccccc3)cc2N)s1` [Compound 126] was 500 to 5000 nM; that for `CN(C)[C@H]1[C@@H]2CN(C(=O)Nc3nc(-c4ccc(F)cc4)ccc3N)C[C@@H]21` [Compound 242] was greater than 5000 nM; that for `CN1CC2CN(C(=O)Nc3nc(-c4ccc(F)cc4)ccc3N)CC2C1` (stereo not shown) [Compound 201] was greater than 5000 nM.
With `Nc1ccc(-c2ccc(F)cc2)nc1NC(=O)N1CC2CN(CCF)CC2C1` (stereo not shown) [Compound 183] the figure was greater than 5000 nM; with `CN(C)Cc1ccc2c(c1)CN(C(=O)Nc1nc(-c3ccc(Cl)s3)ccc1N)C2` [Compound 401], greater than 5000 nM; with `Nc1ccc(-c2ccc(F)cc2)nc1NC(=O)N1Cc2cncnc2C1` [Compound 277], 500 to 5000 nM.
The value for `CN1CCN(Cc2ccc3c(c2)CN(C(=O)Nc2nn(-c4ccccc4)cc2N)C3)CC1` [Compound 353] was 500 to 5000 nM; that for `Nc1ccc(-c2cccnc2)nc1NC(=O)N1CCCC1` [Compound 221] was greater than 5000 nM.
On to `Nc1ccc(-c2ccc(F)cc2)nc1NC(=O)N1CC2CC(N3CC(F)C3)CC2C1` (stereo not shown) [Compound 188], for which the IC50 lay within 500 to 5000 nM.
The value for `COc1cccc(CN2CCCC3(CCN(C(=O)Nc4nc(-c5ccc(F)cc5)ccc4N)C3)C2)c1` (stereo not shown) [Compound 222] was greater than 5000 nM.
On to `CN(C)Cc1ccc(C2CN(C(=O)Nc3nc(-c4ccc(F)cc4)ccc3N)C2)cc1` [Compound 146], for which the IC50 lay within 100 to 500 nM.
On to `Nc1ccc(-c2ccccc2)nc1NC(=O)CN1CCn2cncc2C1` [Compound 194], for which the IC50 was greater than 5000 nM.
`Nc1ccc(-c2ccccc2)nc1NC(=O)N1CC2CC(NC3COC3)CC2C1` (stereo not shown) [Compound 191]: the 50% inhibitory concentration (IC50) is 500 to 5000 nM.
Consider `CN(C)Cc1cnc2c(c1)CN(C(=O)Nc1nc(-c3cccs3)ccc1N)C2` [Compound 145], for which the IC50 is 100 to 500 nM.
With `CN(C)Cc1ccc2c(c1)CN(C(=O)Nc1nn(-c3ccccc3)cc1N)C2` [Compound 351] the figure was 100 to 500 nM.
The value for `CN1CC(N2C[C@@H]3C(C(=O)Nc4nc(-c5ccc(F)cc5)ccc4N)[C@@H]3C2)C1` (stereo partly shown) [Compound 241] was greater than 5000 nM; that for `Nc1ccc(-c2ccc(F)cc2)nc1NC(=O)N1CC2CN(C3COC3)CC2C1` (stereo not shown) [Compound 203] was greater than 5000 nM.

Source of the values: patent US10919902B2, “Hetero-halo inhibitors of histone deacetylase” (Alkermes, Inc., priority 2015, dated 2021).
